Test results: patent US8946437B2, “4-(methylaminophenoxy)pyrdin-3-yl-benzamide derivatives for treating cancer” (Otsuka Pharmaceutical Co., Ltd., priority 2010, dated 2015)
Where a name gives a salt, the structure may show the parent alone.

How the values were obtained:
[1] = tested on: human hepatic cancer cells (HuH-7); experiment: Antiproliferative effect on cancer cells (in vitro), sulforhodamine B method; assay type: cell-based; details: 120 h, HuH-7 cells, 5 days incubation with test compound, SRB staining, read-out: IC50 (50% inhibitory concentration), growth inhibition of HuH-7 cells
Procedure: Antiproliferative Effect on Cancer Cells (In Vitro)
Growth inhibition of human hepatic cancer cells (HuH-7) was determined by the sulforhodamine B method based on the method of Skehan P. et al. (J Natl Cancer Inst. 1990 Jul. 4; 82(13): 1107-12). In the study, HuH-7 cells were seeded on DMEM medium containing 10% fetal bovine serum in a 96-well microplate. After 24-hour incubation at 37° C. in the presence of 5% carbon dioxide, the test compound was added and the cells were incubated for another 5 days. After incubation, a trichloroacetic acid solution was added to yield the final concentration of 10% and the cells were left to stand at 4° C. for 1 hour to fix. Then, the cells were washed with water to remove the medium and trichloroacetic acid and dried in the air. The dried cells were stored at 4° C. until they were stained with sulforhodamine B. To each well, 1% acetic acid solution containing 0.4% sulforhodamine B was added and left to stand for 20 to 30 minutes at room temperature. After discarding the supernatant, each well was washed with 1% acetic acid solution, and 10 mM Tris(tris-(hydroxymethyl)aminomethane) solution was added while stirring to elute the dye taken into the cells. Then, the optical density was determined at the measurement wavelength of 492 nm and the reference wavelength of 690 nm, and the difference was calculated. The cell growth activity in each well was defined as the value determined by subtracting the OD in the control well not containing cells (the difference in absorbance between 492 nm and 690 nm) from that in the test well.
The 50% inhibitory concentration (IC50 (nM)) of the test compound was determined by comparing the cell growth activity in the well containing the test compound with that of the control not containing the test compound.

[2] = Metabolic stability test in hepatic microsome; assay type: in vitro ADME; details: liver microsomes, NADH/NADPH, 37° C., 0, 10 and 20 min, read-out: CLint (intrinsic clearance)
Procedure: Metabolic Stability Test in Hepatic Microsome
In this study, 222.5 μL of 0.22 mg/mL liver microsome was distributed to each tube, and 2.5 μL of 100 μM test compound was added thereto. Then, 22.5 μL of this mixture was divided to 500 μL of acetonitrile spiked IS as 0 min sample, and the residue was pre-incubated at 37° C. for 5 min. Reaction was started by the addition of 22.5 μL of 10 mM NADH/NADPH, and after 10 and 20 min, 25 μL of the reaction mixture was divided to 500 μL of acetonitrile spiked IS. The samples were centrifuged (5700 rpm, 4° C., 10 min), and the supernatants were analyzed by LC/MS/MS. The slope of the linear regression from log percentage remaining versus incubation time relationships (−ke) was calculated, and the intrinsic clearance (CLint) was calculated using the following equation.

[3] = Stability test of dissolved compounds under heat- and acid-stress condition; assay type: physicochemical; details: dissolved in water/acetonitrile/trifluoroacetic acid (500:500:1), stored at 70° C., Day 0, Day 1 and Day 3
Procedure: In order to estimate the stability of compounds without conducting a long-term stability test, the stability of the dissolved compounds was evaluated under a heat- and acid-stress condition.
About 0.005 g of test compound was dissolved in 50 mL of a mobile phase, and this solution was used as the sample solution. The solutions were put into a brown glass vial and stored at 70° C. during the test period. The test with 20 μL of each of the sample solution was conducted at the following sampling points as directed under the Liquid Chromatography according to the following conditions. The residual ratio of the test compound's peak area (%) in the total peak area detected in the solution was determined by the automatic integration method. Operating conditions were as follows. […] The residual ratio of the test compound's peak area (%) is calculated as follows. The peak area of the test compound/The total peak area detected in the solution×100.

| Structure (SMILES) | IC50 [1] [nM] | microsomal CLint at 1 µM [2] [µL/min/mg] | melting point | storage stability (residual ratio of the test compound's peak area) [3] |
| --- | --- | --- | --- | --- |
| CNc1ccc(Oc2ccc(NC(=O)c3ccc(Oc4ccccc4)cc3)cn2)cc1 [Example 10, N-{6-[4-(Methylamino)phenoxy]pyridin-3-yl}-4-phenoxybenzamide] | 320 | – | – | – |
| CNc1ccc(Oc2ccc(NC(=O)c3ccc(Oc4ccccc4)cc3)cn2)c(C)c1 [Example 6, N-{6-[2-Methyl-4-(methylamino)phenoxy]pyridin-3-yl}-4-phenoxybenzamide] | 78.5 | < 200 | – | – |
| CNc1ccc(Oc2ccc(NC(=O)c3ccc(Oc4ccccc4)cc3)cn2)c(F)c1 [Example 21, N-{6-[2-fluoro-4-(methylamino)phenoxy]pyridin-3-yl}-4-phenoxybenzamide hydrochloride] | 136 | – | – | – |
| CNc1ccc(Oc2ccc(NC(=O)c3ccc(-c4ccccc4)cc3)cn2)c(OC)c1 [Example 14, N-{6-[2-Methoxy-4-(methylamino)phenoxy]pyridin-3-yl}biphenyl-4-carboxamide] | 248 | < 200 | 161.4 to 161.8 °C | – |
| CNc1ccc(Oc2ccc(NC(=O)c3ccc(F)c(F)c3F)cn2)c(OC)c1.Cl | – | – | 207.1 to 209.8 °C | – |
| CNc1ccc(Oc2ccc(NC(=O)c3ccc(C(F)(F)F)cc3F)cn2)c(C)c1 [Example 9, 2-Fluoro-N-{6-[2-methyl-4-(methylamino)phenoxy]pyridin-3-yl}-4-(trifluoromethyl)benzamide] | 70.4 | < 200 | – | – |
| CNc1ccc(Oc2ccc(NC(=O)c3ccc(C(F)(F)F)cc3F)cn2)c(F)c1 [Example 22, 2-Fluoro-N-{6-[2-fluoro-4-(methylamino)phenoxy]pyridin-3-yl}-4-(trifluoromethyl)benzamide hydrochloride] | 163 | < 200 | – | – |
| CNc1ccc(Oc2ccc(NC(=O)c3ccc(-c4ccccc4)cc3)cn2)cc1 [Example 11, N-{6-[4-(Methylamino)phenoxy]pyridin-3-yl}biphenyl-4-carboxamide] | 311 | – | – | – |
| CNc1ccc(Oc2ccc(NC(=O)c3ccc(-c4ccccc4)cc3)cn2)c(C)c1 [Example 7, N-{6-[2-Methyl-4-(methylamino)phenoxy]pyridin-3-yl}biphenyl-4-carboxamide] | 77.6 | < 200 | – | – |
| CNc1ccc(Oc2ccc(NC(=O)c3ccc(C(F)(F)F)cc3)cn2)c(F)c1 [Example 3, N-{6-[2-Fluoro-4-(methylamino)phenoxy]pyridin-3-yl}-4-(trifluoromethyl)benzamide] | 155 | < 200 | – | – |
| CNc1ccc(Oc2ccc(NC(=O)c3ccc(-c4ccccc4)cc3)cn2)c(F)c1 [Example 2, N-{6-[2-Fluoro-4-(methylamino)phenoxy]pyridin-3-yl}biphenyl-4-carboxamide] | 108 | < 200 | 190 to 190.5 °C (dec.) | – |
| CNc1ccc(Oc2ccc(NC(=O)c3ccc(F)c(F)c3F)cn2)c(F)c1 [Example 23, 2,3,4-Trifluoro-N-{6-[2-fluoro-4-(methylamino)phenoxy]pyridin-3-yl}benzamide hydrochloride] | 753 | – | – | – |

The remaining lines, values ahead:

| IC50 [1] [nM] | microsomal CLint at 1 µM [2] [µL/min/mg] | melting point | storage stability (residual ratio of the test compound's peak area) [3] | Structure (SMILES) |
| --- | --- | --- | --- | --- |
| 327 | < 200 | – | – | CNc1ccc(Oc2ccc(NC(=O)c3ccc(C(F)(F)F)cc3F)cn2)cc1 [Example 31, 2-Fluoro-N-{6-[4-(methylamino)phenoxy]pyridin-3-yl}-4-(trifluoromethyl)benzamide hydrochloride] |
| 293 | < 200 | 197 to 198.1 °C | – | CNc1ccc(Oc2ccc(NC(=O)c3ccc(C(F)(F)F)cc3F)cn2)c(OC)c1.Cl [Example 28, 2-Fluoro-N-{6-[2-methoxy-4-(methylamino)phenoxy]pyridin-3-yl}-4-(trifluoromethyl)benzamide hydrochloride] |
| 275 | < 200 | 202.2 to 202.3 °C | – | CNc1ccc(Oc2ccc(NC(=O)c3ccc(Oc4ccccc4)cc3)cn2)c(OC)c1.Cl [Example 26, N-{6-[2-Methoxy-4-(methylamino)phenoxy]pyridin-3-yl}-4-phenoxybenzamide hydrochloride] |
| 275 | < 200 | – | superior storage stability | CNc1ccc(Oc2ccc(NC(=O)c3ccc(C(F)(F)F)cc3)cn2)cc1.Cl [Example 30, N-{6-[4-(Methylamino)phenoxy]pyridin-3-yl}-4-(trifluoromethyl)benzamide hydrochloride] |
| 304 | < 200 | 217.6 to 218.2 °C | – | CNc1ccc(Oc2ccc(NC(=O)c3ccc(C(F)(F)F)cc3)cn2)c(OC)c1.Cl [Example 27, N-{6-[2-Methoxy-4-(methylamino)phenoxy]pyridin-3-yl}-4-(trifluoromethyl)benzamide hydrochloride] |
| 485 | < 200 | 222.9 to 225.4 °C (dec.) | – | CNc1ccc(Oc2ccc(NC(=O)c3ccc(F)c(F)c3F)cn2)c(C)c1.Cl [Example 25, 2,3,4-Trifluoro-N-{6-[2-methyl-4-(methylamino)phenoxy]pyridin-3-yl}benzamide hydrochloride] |
| 72.3 | < 200 | – | – | CNc1ccc(Oc2ccc(NC(=O)c3ccc(C(F)(F)F)cc3)cn2)c(C)c1 [Example 24, N-{6-[2-methyl-4-(methylamino)phenoxy]pyridin-3-yl}-4-(trifluoromethyl)benzamide hydrochloride] |
